The values that follow come from patent US20250213707A1, “COMPOUND FOR INCREASING EFFICACY OF ONCOLYTIC VIRUSES” (ABLEVIA BIOTECH GMBH, priority 2022, published 2025).

Common to all, as to type: binding
In one assay the test system is mAb E10B10. Description: Fine epitope mapping of mAb E10B10 with 1068 circular peptides from SRCR-1 to -3 of mouse CD163. The following applies: circular peptides of 7, 10 and 13 amino acids from mouse CD163. The text has this: The epitope of this antibody was fine mapped using circular peptide arrays, whereby the peptides were derived from mouse CD163.
Assay [1] deals with IgG from human donors (anti-measles virus antibodies). More on the design: key: X: The peptides belonging to the Top 10% hits.
Another assay relates to mAb Mac2-158. Description: Epitope mapping of mAb Mac2-158 with circular peptides of human CD163 SRCR domain 1. The following applies: circular peptides aligned to SRCR domain 1 of human CD163. The text has this: As a result, the following sequences (as well as motifs derived therefrom) are highly suitable epitopes anti-CD163 antibodies and fragments thereof used as SADC biopolymer scaffold: […]

Assay [2] deals with IgG from human donors (anti-AAV antibodies). In words: Screen for anti-AAV antibodies in human sera, 2452 linear 15-amino-acid AAV peptides on microarrays (Table 1). On the set-up: key to group I: X: the deduplicated aggregate of the respective top 10 peptide hits for each donor was compiled and designated as group I; key to group II: X: the deduplicated aggregate of the respective top 25 peptide hits for each donor was compiled and designated as group II; key to group III: X: the deduplicated aggregate of the respective top 50 peptide hits for each donor was compiled and designated as group III. The conditions noted are these: human donor IgG binding to linear 15-amino-acid AAV peptides on microarray, fluorescence; for group I: membership in deduplicated aggregate of top 10 peptide hits for each donor; for group II: membership in deduplicated aggregate of top 25 peptide hits for each donor; for group III: membership in deduplicated aggregate of top 50 peptide hits for each donor. In short, it runs like this: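 Peptide hits were grouped I to IV by pooling each donor's top 10, 25, 50 or 250 background-corrected fluorescence signals, after deduplication. Signals came from donor IgG, purified on protein G, bound to arrayed 15-residue linear peptides (2452 total) spanning 16 AAV sequences.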

Consider 368 (VTNAPGEMKKELR) [compound 368], for which, in the assay with mAb E10B10, the “rank by relative signal strength (top binding peptides of mAb E10B10)” value (“rank by relative signal strength” below) worked out at 01.
With 369 (ASAVTNAPGEMKK) [compound 369], the “rank by relative signal strength” value in the assay with mAb E10B10 came to 02.
Consider 370 (VTNAPGEMKK) [compound 370], for which, in the assay with mAb E10B10, the “rank by relative signal strength” value came out at 03.
For the substance 371 (VTNAPGE) [compound 371], the “rank by relative signal strength” value with mAb E10B10 is given as 04.
For the substance 372 (GSASAVTNAPGEM) [compound 372], in the assay on mAb E10B10, the “rank by relative signal strength” value is reported as 05.
The same measure, in the same setting: next, 373 (AVTNAPGEMKKEL) [compound 373]: 06; 374 (SASAVTNAPGEMK) [compound 374]: 07; 375 (SGSASAVTNAPGE) [compound 375]: 08.
In the case of 376 (AVTNAPGEMK) [compound 376], in the assay with mAb E10B10, the “rank by relative signal strength” value came to 09.
As to 377 (SAVTNAPGEM) [compound 377], in the assay on mAb E10B10, the “rank by relative signal strength” value turned out to be 10.
For the substance 378 (ASAVTNAPGE) [compound 378], in the assay with mAb E10B10, the “rank by relative signal strength” value came to 11.
Regarding 379 (SAVTNAPGEMKKE) [compound 379], in the assay on mAb E10B10, the “rank by relative signal strength” value is listed as 12.
Same read-out and setting: next, 380 (TNAPGEMKKE) [compound 380]: 13.
“DEEEIRTTNPVATE (REGION 1..14: note = peptide derived from viral capsid protein) [SEQ ID NO: 1902]”: the “top 10%” value in assay [1] is recorded as “X”. The “peptide number among the top 20 peptide hits of mAb Mac2-158” value with mAb Mac2-158 is 18. Besides, in assay [2], the “group I” value is “X”, the “group II” value is “X” and the “group III” value is recorded as “X”.
For “KIFNIQVKEVTTSN (REGION 1..14: note = peptide derived from viral capsid protein) [SEQ ID NO: 1896]”, in assay [1], the “top 10%” value is reported as “X”. In the assay on mAb Mac2-158, the “peptide number among the top 20 peptide hits of mAb Mac2-158” value was 20. In assay [2], the “group I” value is listed as “X”, the “group II” value is listed as “X” and the “group III” value was “X”.
Take “KTAPGKKRPVDQSP (REGION 1..14: note = peptide derived from viral capsid protein) [SEQ ID NO: 1920]”: the “top 10%” value in assay [1] is listed as “X”. Moreover, in assay [2], the “group I” value is recorded as “X”, the “group II” value is given as “X” and the “group III” value is on record as “X”.
With “NYNKSVNVDFTVDT (REGION 1..14: note = peptide derived from viral capsid protein) [SEQ ID NO: 1903]”, the “top 10%” value in assay [1] is reported as “X”. For the same substance, in the assay with mAb Mac2-158, the “peptide number among the top 20 peptide hits of mAb Mac2-158” value is reported as 19. Besides, in assay [2], the “group I” value was “X”, the “group II” value was “X” and the “group III” value was “X”.
With “PEIQYTSNYNKSVN (REGION 1..14: note = peptide derived from viral capsid protein) [SEQ ID NO: 1921]”, in assay [1], the “top 10%” value is “X”. Besides, in assay [2], the “group I” value was “X”, the “group II” value is listed as “X” and the “group III” value is recorded as “X”.
As for “SESVPDPQPIGEPP (REGION 1..14: note = peptide derived from viral capsid protein) [SEQ ID NO: 1899]”, in assay [1], the “top 10%” value is “X”. Moreover, in the assay on mAb Mac2-158, the “peptide number among the top 20 peptide hits of mAb Mac2-158” value came to 09. Moreover, in assay [2], the “group I” value was “X”, the “group II” value is given as “X” and the “group III” value is “X”.
On to SNSQLIFAGPNPSG [SEQ ID NO: 1908], for which the “top 10%” value in assay [1] is given as “X”. For the same substance, the “peptide number among the top 20 peptide hits of mAb Mac2-158” value in the assay with mAb Mac2-158 came to 03. Besides, in assay [2], the “group I” value is “X”, the “group II” value is “X” and the “group III” value is “X”.
Turning to STNLQRGNLALGET [SEQ ID NO: 1894], the “top 10%” value in assay [1] is reported as “X”. In assay [2], the “group I” value is given as “X”, the “group II” value is reported as “X” and the “group III” value is listed as “X”.
As to TRPATAPQIGTVNS [SEQ ID NO: 1905], the “top 10%” value in assay [1] is recorded as “X”. For the same substance, in assay [2], the “group I” value is recorded as “X”, the “group II” value is recorded as “X” and the “group III” value is “X”.
With “YDQQLKAGDNPYLK (REGION 1..14: note = peptide derived from viral capsid protein) [SEQ ID NO: 1924]”, the “top 10%” value in assay [1] is listed as “X”. Besides, in assay [2], the “group I” value is given as “X”, the “group II” value was “X” and the “group III” value is “X”.
On to YLYYLNRTQGTTSG [SEQ ID NO: 1925], for which the “top 10%” value in assay [1] is “X”. Further, in assay [2], the “group I” value is on record as “X”, the “group II” value is “X” and the “group III” value was “X”.
